Source: patent US9969743B2, “Urea and amide derivatives of aminoalkylpiperazines and use thereof” (Southern Research Institute, priority 2012, dated 2018)

What was measured:
[1] = biological target: human D2 dopamine receptors (HEK cells) (Homo sapiens (Human), UniProt P14416); experiment: Whole cell adenylyl cyclase assay, D2; type: cell-based; settings: inhibition of forskolin (100 μM) stimulated cAMP, normalized to quinpirole; conc >10× Ki, per compound in Conc (nM); mean ± S.E.M.
Method: Functional Activity. Whole cell adenylyl cyclase assay. The intrinsic activity of the compounds was evaluated by determining their ability to inhibit forskolin-dependent (100 μM) stimulation of adenylyl cyclase activity using a whole cell assay. A whole cell-cyclic AMP accumulation assay was performed with stably transfected HEK cells expressing human D2 or D3 dopamine receptors. This assay is an adaptation of an earlier published method (Su et al., Cyclic Nucleotide Res. 1976, 2, 257-285). Details regarding this method have been published (Chu, W. et al. Bioorg. Med. Chem. 2005, 13, 77-87; Taylor, M. et al. Synapse 2010, 64, 251-266). Confluent (60-80%) HEK cells transfected with recombinant D2-like dopamine receptors were grown in DMEM/10% fetal calf serum containing geneticin in […]. The endogenous ATP pool is radioactively labeled by preincubating the cells in serum-free DMEM/25 mM Hepes medium containing 2 μCi/mL of [2,8-^3H]-adenine (20-Ci/mmol) in a 5% CO2 incubator at 37° C. for 75 min. The radioactive medium was removed by aspiration. Serum-free DMEM (5.6 mL) containing 25 mM HEPES, pH 7.4, and 0.1 mM of the phosphodiesterase inhibitor isobutylmethylxanthine was added to the flask. A 400-μL aliquot of cells was removed and added to 50 μL of forskolin (100 μM) and 50 μL of test drug or quinpirole in DMEM-HEPES. The cells were incubated for 20 min at 37° C. (vortexing every 5 min). The reaction was terminated by the addition of 0.5 mL of 10% trichloroacetic acid (w/v) containing 1.0 mM unlabeled cyclic AMP as a recovery standard. Both the [^3H]-cyclic AMP and the [^3H]-ATP fractions were collected following separation using columns of Dowex AG-50W-X4 and alumina. The final yield of [^3H]-cyclic AMP is corrected for column recovery of unlabeled cyclic AMP determined spectrophotometrically (OD259). The results are reported as percent conversion of [^3H]-ATP into [^3H]-cyclic AMP. The values for the percent inhibition are reported as the actual percent of inhibition of the ^3H-cAMP accumulation relative to the assay performed in the absence of a test compound, minus basal activity. […] The percent maximum response is the value for the inhibition normalized to the value for the full agonist quinpirole.

[2] = biological target: human D3 dopamine receptor (Homo sapiens (Human), UniProt P35462); experiment: Radioligand binding (125I-IABN competition), D3 dopamine receptor; settings: for Ki: 125I-IABN competition, membranes of stably transfected HEK cells, 37° C. 60 min, Cheng and Prusoff; for D2/D3 (D3 selectivity ratio, D2 Ki/D3 Ki): calculated from binding Ki values
Sequence of human D3 dopamine receptor (P35462 whole entry): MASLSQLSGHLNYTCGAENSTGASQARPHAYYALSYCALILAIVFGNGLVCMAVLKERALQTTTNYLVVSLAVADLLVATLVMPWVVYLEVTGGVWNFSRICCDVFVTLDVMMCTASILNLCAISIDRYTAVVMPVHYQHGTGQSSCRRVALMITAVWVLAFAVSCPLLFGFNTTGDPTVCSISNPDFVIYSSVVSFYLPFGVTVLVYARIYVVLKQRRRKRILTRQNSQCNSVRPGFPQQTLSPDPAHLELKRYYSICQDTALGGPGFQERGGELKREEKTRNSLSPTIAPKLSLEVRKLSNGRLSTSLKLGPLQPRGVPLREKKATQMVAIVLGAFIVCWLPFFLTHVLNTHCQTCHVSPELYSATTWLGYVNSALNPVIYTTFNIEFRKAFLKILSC
Method: (§1) Binding Affinity. The affinities of the target compounds were determined using radioligand binding experiments.
(§2) Competition curves were modeled for a single site. Data from competition dose-response curves were analyzed using Tablecurve program (Jandel). IC50 values were converted to equilibrium dissociation constants (Ki values) using the Cheng and Prusoff correction.

[3] = biological target: human D2-long dopamine receptor (Homo sapiens (Human), UniProt P14416); experiment: Radioligand binding (125I-IABN competition), D2-long dopamine receptor; settings: membranes of stably transfected HEK cells, 37° C. 60 min, Cheng and Prusoff
Sequence of human D2-long dopamine receptor (P14416 whole entry): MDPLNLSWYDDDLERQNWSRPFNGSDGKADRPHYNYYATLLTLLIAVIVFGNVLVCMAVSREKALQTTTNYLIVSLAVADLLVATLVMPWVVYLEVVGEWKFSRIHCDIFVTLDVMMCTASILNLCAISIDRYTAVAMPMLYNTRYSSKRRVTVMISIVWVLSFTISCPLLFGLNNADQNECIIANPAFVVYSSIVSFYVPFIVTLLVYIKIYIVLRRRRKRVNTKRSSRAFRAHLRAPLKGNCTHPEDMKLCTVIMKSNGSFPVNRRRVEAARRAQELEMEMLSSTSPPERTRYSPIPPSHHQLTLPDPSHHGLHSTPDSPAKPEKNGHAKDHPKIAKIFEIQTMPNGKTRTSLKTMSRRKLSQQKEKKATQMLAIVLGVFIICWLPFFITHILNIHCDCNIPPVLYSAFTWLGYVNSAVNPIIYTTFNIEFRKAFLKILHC
Method: as §1, §2

Sequence of human D2 dopamine receptors (HEK cells) (P14416 whole entry): as above

Compound	D2 Cyclase % Inhibition Normalized [1]	Ki [2]	D2/D3 (D3 selectivity ratio, D2 Ki/D3 Ki) [2]	Ki [3]
CC(C)(C)c1nc(C2CC2)cc(N2CCN(CCCCNC(=O)N3CCc4c([nH]c5ccccc45)C3)CC2)n1 [Compound 101, N-(4-(4-(2-(tert-Butyl)-6-cyclopropylpyrimidin-4-yl)piperazin-1-yl)butyl)-1,3,4,9-tetrahydro-2H-pyrido[3,4-b]indole-2-carboxamide]	–	57.1 ± 3.5 nM	–	789 ± 45.7 nM
CC(C)(C)c1nc(N2CCN(CCCCNC(=O)c3cn4ccncc4n3)CC2)cc(C(F)(F)F)n1 [Compound 115, N-(4-(4-(2-(tert-Butyl)-6-(trifluoromethyl)pyrimidin-4-yl)piperazin-1-yl)butyl)imidazo[1,2-a]pyrazine-2-carboxamide]	Insoluble	–	–	–
CC(C)(C)c1nc(N2CCN(CCCCNC(=O)c3cn4nc(Cl)ccc4n3)CC2)cc(C(F)(F)F)n1 [Compound 116, N-(4-(4-(2-(tert-Butyl)-6-(trifluoromethyl)pyrimidin-4-yl)piperazin-1-yl)butyl)-6-chloroimidazo[1,2-b]pyridazine-2-carboxamide]	Insoluble	–	–	–

Continued, values first:

D2 Cyclase % Inhibition Normalized [1]	Ki [2]	D2/D3 (D3 selectivity ratio, D2 Ki/D3 Ki) [2]	Ki [3]	Compound
Insoluble	–	–	–	CC(C)(C)c1nc(N2CCN(CCCCNC(=O)N3CCN(c4ccccc4)CC3)CC2)c2ccccc2n1 [Compound 13, N-(4-(4-(2-(tert-Butyl)quinazolin-4-yl)piperazin-1-yl)butyl)-4-phenylpiperazine-1-carboxamide]
Insoluble	–	–	–	CC(C)(C)c1nc(N2CCN(CCCCNC(=O)N3CCC(c4ccccc4)CC3)CC2)cc(C(F)(F)F)n1 [Compound 48, N-(4-(4-(2-(tert-Butyl)-6-(trifluoromethyl)pyrimidin-4-yl)piperazin-1-yl)butyl)-4-phenylpiperidine-1-carboxamide]
–	9.5 ± 1.7 nM	33	308 ± 29.9 nM	CC(C)(C)c1cc(N2CCN(CCCCNC(=O)N3CCc4c([nH]c5ccccc45)C3)CC2)nc(C(C)(C)C)n1 [Compound 56, N-(4-(4-(2,6-Di-tert-butylpyrimidin-4-yl)piperazin-1yl)butyl)-1,3,4,9-tetrahydro-2H-pyrido[3,4-b]indole-2-carboxamide]
–	245 ± 46.4 nM	10	2440 ± 175 nM	CC(C)(C)c1cc(N2CCN(CCCCNC(=O)N3CCc4c([nH]c5ccccc45)C3)CC2)cc(C(C)(C)C)c1 [Compound 97, N-(4-(4-(3,5-Di-tert-butylphenyl)piperazin-1-yl)butyl)-1,3,4,9-tetrahydro-2H-pyrido[3,4-b]indole-2-carboxamide]
